# Results taken from ChEMBL document CHEMBL3132769, “Fragment growing to retain or alter the selectivity of anchored kinase hinge-binding fragments” (Medchemcomm, 2014).
# Target: T1, cGMP-dependent protein kinase 1 (Homo sapiens) (UniProt Q13976)
# T1 sequence (whole entry): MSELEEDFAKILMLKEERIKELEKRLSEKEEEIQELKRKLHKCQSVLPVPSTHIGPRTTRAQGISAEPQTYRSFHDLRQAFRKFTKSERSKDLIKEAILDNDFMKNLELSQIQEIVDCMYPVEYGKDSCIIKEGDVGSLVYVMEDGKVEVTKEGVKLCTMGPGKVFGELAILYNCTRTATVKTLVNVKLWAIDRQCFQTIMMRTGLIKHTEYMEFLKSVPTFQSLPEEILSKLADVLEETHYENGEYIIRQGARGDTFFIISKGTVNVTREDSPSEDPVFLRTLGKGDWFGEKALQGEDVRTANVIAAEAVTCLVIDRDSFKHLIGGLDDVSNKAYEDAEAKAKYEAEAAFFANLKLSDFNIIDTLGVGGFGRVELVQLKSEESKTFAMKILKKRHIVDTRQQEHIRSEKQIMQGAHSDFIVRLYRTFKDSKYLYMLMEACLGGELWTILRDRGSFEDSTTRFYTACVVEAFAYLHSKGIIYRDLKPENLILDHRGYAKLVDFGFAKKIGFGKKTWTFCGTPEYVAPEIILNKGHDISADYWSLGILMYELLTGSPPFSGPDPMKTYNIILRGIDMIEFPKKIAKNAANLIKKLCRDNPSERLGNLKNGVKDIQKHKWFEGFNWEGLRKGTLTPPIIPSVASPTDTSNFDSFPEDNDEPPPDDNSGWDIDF
# Test: Inhibition of human full length PKG-1beta expressed in baculovirus assessed as substrate phosphorylation using fluorescence-labelled peptides as substrate at 2 uM after 90 mins by microfluidic peptide phosphorylation assay
smiles,measurement,value
NC1CCN(c2ncnc3[nH]ccc23)CC1,inhibition,8.5%
